Laboratory results published in ChEMBL document CHEMBL3351718 (Bioorg Med Chem Lett, 2014).

Tests used:
[1] = molecular target: Vascular endothelial growth factor receptor 2 (Homo sapiens, UniProt P35968); experiment: Inhibition of recombinant VEGFR2 kinase domain (unknown origin)
[2] = molecular target: Mast/stem cell growth factor receptor Kit (Homo sapiens, UniProt P10721); experiment: Inhibition of c-Kit (unknown origin)
[3] = system: HUVEC; experiment: Growth inhibition of HUVEC cells; conditions: Homo sapiens
[4] = molecular target: Proto-oncogene tyrosine-protein kinase receptor Ret (Homo sapiens, UniProt P07949); experiment: Inhibition of RET (unknown origin)
Proto-oncogene tyrosine-protein kinase receptor Ret, sequence (P07949 whole entry): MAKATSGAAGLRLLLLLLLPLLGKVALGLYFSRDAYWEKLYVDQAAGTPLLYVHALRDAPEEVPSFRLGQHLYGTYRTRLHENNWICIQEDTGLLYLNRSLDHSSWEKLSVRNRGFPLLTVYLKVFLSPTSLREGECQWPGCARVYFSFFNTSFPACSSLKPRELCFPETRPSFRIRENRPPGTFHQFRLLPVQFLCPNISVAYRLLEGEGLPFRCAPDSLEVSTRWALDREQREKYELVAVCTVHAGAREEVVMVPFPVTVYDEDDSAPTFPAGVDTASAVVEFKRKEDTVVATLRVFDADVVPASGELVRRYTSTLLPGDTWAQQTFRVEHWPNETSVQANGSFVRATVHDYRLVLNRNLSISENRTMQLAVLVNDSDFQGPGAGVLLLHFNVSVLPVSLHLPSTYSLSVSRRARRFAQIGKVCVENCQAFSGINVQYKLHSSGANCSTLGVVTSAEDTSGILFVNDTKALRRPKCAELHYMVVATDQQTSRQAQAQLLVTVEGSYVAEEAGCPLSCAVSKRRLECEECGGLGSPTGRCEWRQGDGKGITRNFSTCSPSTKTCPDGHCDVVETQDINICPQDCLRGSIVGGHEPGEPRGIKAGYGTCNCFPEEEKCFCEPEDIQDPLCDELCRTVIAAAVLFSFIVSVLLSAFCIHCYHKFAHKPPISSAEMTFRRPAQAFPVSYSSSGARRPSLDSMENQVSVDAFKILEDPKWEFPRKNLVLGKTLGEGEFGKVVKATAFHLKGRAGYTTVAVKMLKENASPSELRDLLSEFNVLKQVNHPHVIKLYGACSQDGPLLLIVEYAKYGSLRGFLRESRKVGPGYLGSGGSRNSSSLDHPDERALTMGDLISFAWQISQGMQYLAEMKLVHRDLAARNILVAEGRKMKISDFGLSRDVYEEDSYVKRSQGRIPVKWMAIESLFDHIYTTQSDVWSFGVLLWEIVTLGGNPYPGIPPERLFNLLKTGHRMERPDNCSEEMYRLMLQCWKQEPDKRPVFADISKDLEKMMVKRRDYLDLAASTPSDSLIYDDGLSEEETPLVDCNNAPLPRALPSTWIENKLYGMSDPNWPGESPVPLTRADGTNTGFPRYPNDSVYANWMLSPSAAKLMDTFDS

[5] = Growth inhibition of human MKN45 cells; conditions: MKN-45
[6] = molecular target: Hepatocyte growth factor receptor (Homo sapiens, UniProt P08581); experiment: Inhibition of recombinant MET kinase domain (unknown origin)
Hepatocyte growth factor receptor, sequence (P08581 whole entry, the tested form may be a part): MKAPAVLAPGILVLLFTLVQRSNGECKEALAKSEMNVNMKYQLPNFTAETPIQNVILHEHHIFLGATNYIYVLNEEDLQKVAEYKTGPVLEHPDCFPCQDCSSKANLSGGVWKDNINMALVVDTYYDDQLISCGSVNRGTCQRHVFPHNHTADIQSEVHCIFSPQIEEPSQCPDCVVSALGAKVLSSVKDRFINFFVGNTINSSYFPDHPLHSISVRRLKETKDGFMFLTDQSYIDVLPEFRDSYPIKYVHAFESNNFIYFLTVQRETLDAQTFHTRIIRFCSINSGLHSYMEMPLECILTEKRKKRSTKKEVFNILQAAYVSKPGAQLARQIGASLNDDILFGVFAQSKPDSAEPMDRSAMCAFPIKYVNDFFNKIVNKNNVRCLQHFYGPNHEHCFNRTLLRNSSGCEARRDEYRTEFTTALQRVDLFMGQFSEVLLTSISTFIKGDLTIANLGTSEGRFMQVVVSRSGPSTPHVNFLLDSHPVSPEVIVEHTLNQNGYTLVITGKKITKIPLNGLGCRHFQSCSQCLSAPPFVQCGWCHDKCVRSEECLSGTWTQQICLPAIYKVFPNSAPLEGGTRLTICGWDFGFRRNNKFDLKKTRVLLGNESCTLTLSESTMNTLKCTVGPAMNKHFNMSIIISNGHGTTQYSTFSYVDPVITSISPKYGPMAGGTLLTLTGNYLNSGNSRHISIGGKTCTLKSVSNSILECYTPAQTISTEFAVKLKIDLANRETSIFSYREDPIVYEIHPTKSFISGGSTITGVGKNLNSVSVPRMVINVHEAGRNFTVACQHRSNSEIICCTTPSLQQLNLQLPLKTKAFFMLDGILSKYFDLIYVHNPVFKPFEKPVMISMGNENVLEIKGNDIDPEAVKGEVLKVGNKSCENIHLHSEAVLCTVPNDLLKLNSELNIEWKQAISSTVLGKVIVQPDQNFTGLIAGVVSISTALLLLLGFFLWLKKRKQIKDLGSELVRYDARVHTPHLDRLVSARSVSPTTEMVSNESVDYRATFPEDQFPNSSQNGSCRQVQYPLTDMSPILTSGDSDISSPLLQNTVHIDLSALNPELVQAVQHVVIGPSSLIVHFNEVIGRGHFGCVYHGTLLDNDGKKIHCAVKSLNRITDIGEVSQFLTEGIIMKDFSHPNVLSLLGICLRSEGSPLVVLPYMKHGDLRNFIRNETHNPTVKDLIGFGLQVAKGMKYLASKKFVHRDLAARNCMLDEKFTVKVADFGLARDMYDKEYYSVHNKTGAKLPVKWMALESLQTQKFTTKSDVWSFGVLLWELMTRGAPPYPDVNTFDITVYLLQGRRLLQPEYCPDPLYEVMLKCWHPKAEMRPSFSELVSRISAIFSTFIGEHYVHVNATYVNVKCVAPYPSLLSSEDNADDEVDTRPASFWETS

Vascular endothelial growth factor receptor 2, sequence (P35968 whole entry, the tested form may be a part): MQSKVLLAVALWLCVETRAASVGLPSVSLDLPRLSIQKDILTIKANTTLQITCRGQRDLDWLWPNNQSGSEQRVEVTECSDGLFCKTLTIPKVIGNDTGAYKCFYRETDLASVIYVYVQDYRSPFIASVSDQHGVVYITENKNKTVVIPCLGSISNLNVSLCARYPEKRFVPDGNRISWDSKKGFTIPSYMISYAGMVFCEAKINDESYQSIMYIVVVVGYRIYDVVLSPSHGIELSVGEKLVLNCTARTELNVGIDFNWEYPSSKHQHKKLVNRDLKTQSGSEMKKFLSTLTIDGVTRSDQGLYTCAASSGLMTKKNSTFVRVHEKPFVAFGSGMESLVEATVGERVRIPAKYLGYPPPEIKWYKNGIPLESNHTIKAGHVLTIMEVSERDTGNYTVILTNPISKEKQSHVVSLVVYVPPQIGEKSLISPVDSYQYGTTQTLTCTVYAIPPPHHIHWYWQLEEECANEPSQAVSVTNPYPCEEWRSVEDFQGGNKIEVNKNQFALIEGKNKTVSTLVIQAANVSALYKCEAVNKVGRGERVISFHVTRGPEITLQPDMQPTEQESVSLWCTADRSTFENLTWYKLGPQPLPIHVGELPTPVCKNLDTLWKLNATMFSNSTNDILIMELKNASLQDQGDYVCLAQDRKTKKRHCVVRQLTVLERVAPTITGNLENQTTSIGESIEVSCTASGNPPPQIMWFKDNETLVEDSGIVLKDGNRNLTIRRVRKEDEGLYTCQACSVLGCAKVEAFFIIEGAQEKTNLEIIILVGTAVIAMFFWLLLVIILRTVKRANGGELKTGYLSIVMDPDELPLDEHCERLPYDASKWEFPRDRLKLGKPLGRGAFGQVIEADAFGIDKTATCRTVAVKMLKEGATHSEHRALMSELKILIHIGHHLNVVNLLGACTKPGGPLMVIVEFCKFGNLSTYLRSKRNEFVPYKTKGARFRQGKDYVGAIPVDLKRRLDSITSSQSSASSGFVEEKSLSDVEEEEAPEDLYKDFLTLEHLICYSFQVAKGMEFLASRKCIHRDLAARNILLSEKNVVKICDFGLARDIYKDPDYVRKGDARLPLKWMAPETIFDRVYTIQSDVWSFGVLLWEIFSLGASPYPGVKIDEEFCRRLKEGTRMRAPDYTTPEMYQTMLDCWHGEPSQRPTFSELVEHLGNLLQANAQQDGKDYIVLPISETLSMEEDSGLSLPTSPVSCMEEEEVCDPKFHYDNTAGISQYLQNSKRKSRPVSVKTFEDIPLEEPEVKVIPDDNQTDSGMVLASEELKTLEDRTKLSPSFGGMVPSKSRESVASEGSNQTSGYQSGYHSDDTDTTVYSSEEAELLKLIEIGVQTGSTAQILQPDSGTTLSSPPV
Mast/stem cell growth factor receptor Kit, sequence (P10721 whole entry): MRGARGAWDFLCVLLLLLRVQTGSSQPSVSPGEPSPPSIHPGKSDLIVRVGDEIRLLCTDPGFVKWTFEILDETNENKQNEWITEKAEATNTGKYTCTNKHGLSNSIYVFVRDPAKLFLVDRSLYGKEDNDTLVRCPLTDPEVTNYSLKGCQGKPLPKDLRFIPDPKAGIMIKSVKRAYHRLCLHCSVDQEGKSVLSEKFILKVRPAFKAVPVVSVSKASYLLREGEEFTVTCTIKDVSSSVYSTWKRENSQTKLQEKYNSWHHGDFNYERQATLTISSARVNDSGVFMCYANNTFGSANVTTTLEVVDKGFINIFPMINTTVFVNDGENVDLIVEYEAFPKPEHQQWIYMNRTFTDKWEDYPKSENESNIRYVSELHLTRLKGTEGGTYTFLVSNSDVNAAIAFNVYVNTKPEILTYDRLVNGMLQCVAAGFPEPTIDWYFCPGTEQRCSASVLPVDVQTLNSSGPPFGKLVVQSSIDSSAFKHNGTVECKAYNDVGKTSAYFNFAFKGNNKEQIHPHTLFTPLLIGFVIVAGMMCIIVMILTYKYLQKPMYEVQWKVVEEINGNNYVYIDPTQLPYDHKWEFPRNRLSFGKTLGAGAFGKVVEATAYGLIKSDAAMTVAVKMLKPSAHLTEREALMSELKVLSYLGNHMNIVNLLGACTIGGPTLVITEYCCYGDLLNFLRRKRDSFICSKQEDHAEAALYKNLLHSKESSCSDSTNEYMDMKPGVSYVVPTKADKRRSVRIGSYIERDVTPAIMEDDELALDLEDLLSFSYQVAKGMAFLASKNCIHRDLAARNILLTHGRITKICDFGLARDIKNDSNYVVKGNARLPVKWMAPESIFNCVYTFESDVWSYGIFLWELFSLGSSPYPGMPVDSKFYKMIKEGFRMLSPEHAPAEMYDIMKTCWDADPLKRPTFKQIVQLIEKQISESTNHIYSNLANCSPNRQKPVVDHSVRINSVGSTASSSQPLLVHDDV

Row | Structure (SMILES) | IC50 [1] | IC50 [6] | also measured
1 | COc1cc(=O)n(-c2ccc(Oc3ccnc(N)c3I)c(F)c2)cc1C(=O)NCc1ccc(F)cc1 | > 25 µM | – | IC50 [2]: > 25 µM; IC50 [3]: 2.41 µM; IC50 [4]: > 25 µM; IC50 [5]: > 25 µM
2 | Nc1nccc(Oc2ccc(-n3cccc(C(=O)NCc4ccc(F)cc4)c3=O)cc2F)c1Cl | – | > 25 µM | –
3 | Nc1nccc(Oc2ccc(-n3cc(C(=O)NCc4ccc(F)cc4)ccc3=O)cc2F)c1Cl | > 25 µM | – | –
4 | Nc1nccc(Oc2ccc(-n3cccc(C(=O)Nc4ccc(F)cc4)c3=O)cc2F)c1Cl | – | > 25 µM | –
5 | Nc1nccc(Oc2ccc(-n3cc(C(=O)Nc4ccc(F)cc4)ccc3=O)cc2F)c1Cl | – | > 25 µM | –
6 | COc1cc(=O)n(-c2ccc(Oc3ccnc(N)c3Cl)c(F)c2)cc1C(=O)NCc1ccc(F)cc1 | > 25 µM | – | IC50 [2]: > 25 µM; IC50 [3]: 2.41 µM; IC50 [4]: > 25 µM; IC50 [5]: > 25 µM
7 | Nc1nccc(Oc2ccc(-n3ccc(C(=O)Nc4ccc(F)cc4)cc3=O)cc2F)c1Cl | – | > 25 µM | –
8 | Nc1nccc(Oc2ccc(-n3ccc(C(=O)NCc4ccc(F)cc4)cc3=O)cc2F)c1Cl | – | > 25 µM | –
